{
  "source": "patent US10278941B2",
  "about": "“Use of 2,5-dihydroxybenzene compounds and derivatives for the treatment of glioma” (AmDerma Pharmaceuticals, LLC, priority 2006, dated 2019)",
  "key": {"rat glioma C6 cells": {"test_system": "rat glioma C6 cells", "assay": "Rat glioma C6 cell proliferation, crystal violet staining", "format": "cell-based", "settings": "48 h", "experimental": "The cell line used was rat glioma C6 cells. The cells were cultured as previously described (Cuevas P et al. Neurol Res, 2005). The cells were cultured as adherent cells in Dulbecco's modified Eagle's medium, supplemented with 7.5% (v/v) of fetal bovine serum, 10 μg/ml of streptomycin and 10 units/ml of penicillin. The tumor cells were seeded in 24-well plates at a density of 10,000 cells/well, and were incubated at 37° C. in a humidified chamber with 5% CO2. Once adhered, the cells were treated or not (controls) with 2,5-dihydroxybenzoate at 100, 200, 500 or 1000 μM and they were allowed to proliferate for 48 h. After this time the glioma cell proliferation was evaluated by means of staining the fixed cells with crystal violet. The number of cells is proportional to the amount of retained dye, which was spectrophotometrically determined by measuring the absorbance at 595 nm once the dye was extracted from the cells.\n(§1) The cell line used was the C6 cell line and the experiment was carried out as described in Example 2. Once adhered, the cells were treated or not (controls) with increasing concentrations of 2,5-DHC (10, 25, 50 and 100 μM) and they were allowed to proliferate for 48 h. After this time the glioma cell proliferation was evaluated by means of staining the fixed cells with crystal violet. The number of cells is proportional to the amount of retained dye, which was determined spectrophotometrically by measuring absorbance at 595 nm once the dye was extracted from the cells.\nas §1, with “examples 2 and 3.” for “Example 2.”, “(5A-2HBS) (500 μM) or (2A-5HBS) (500” for “increasing concentrations of 2,5-DHC (10, 25, 50 and 100”, “measuring the” for “measuring”"}, "[1]": {"test_system": "subcutaneous gliomas (rat glioma C6 cells)", "assay": "Progression of established subcutaneous C6 gliomas in rats", "format": "in vivo", "settings": "for average size (volume) of the subcutaneous gliomas: vs carrier", "experimental": "Rat C6 glioma cells were cultured as previously described (Cuevas P et al. Neurol Res, 2005). The C6 cells cultured to confluence in 75 cm^2 flasks were removed and implanted under the abdominal skin in anesthetized rats. The existence of a tumor in the implantation area was observed five days after the implantation of the tumor cells. Only the rats in which the existence of a tumor was observed were randomly assigned to be treated with daily intraperitoneal injections of 2,5-dihydroxybenzene sulfonate (DHBS; 100 mg/kg/day), 2,5-diacetoxybenzene sulfonate (DABS; 100 mg/kg/day) or the carrier (0.9% NaCl). After 10 days of treatment, the subcutaneous gliomas were removed and their volume was calculated according to the formula V=4/3π·(L/2)·(A/2)^2 (in mm^3) where L is the larger diameter and A is the smaller diameter, both expressed in mm.\nTumor cells elude the programmed cell death process or apoptosis that normal cells experience. Apoptosis induction in tumor cells is one way to confront the development of a tumor. To evaluate the effect of potassium 2,5-dihydroxybenzene sulfonate […] on tumor cell apoptosis, 6 μm thick sections of the subcutaneous gliomas described in example 4 were made. The sections were stained with hematoxylin and eosin and observed at a magnification of 313 times using immersion oil. In these conditions, cell apoptosis is shown by the existence of apoptotic bodies appearing as strongly chromogenic granules in the cell nucleus which is frequently fragmented."}, "[2]": {"target": "T1, Fibroblast Growth Factor-1 (FGF-1) (Homo sapiens, UniProt P05230)", "T1 sequence (P05230 whole entry, species assumed)": "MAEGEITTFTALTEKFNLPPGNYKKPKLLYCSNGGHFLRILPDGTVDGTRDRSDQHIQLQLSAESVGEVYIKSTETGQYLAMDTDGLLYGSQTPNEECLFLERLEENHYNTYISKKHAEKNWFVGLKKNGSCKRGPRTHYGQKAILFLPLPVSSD", "assay": "FGF-1-induced mitogenesis in quiescent Balb/c 3T3 fibroblast cultures", "format": "cell-based", "settings": "quiescent Balb/c 3T3 fibroblasts", "experimental": "The evaluated compounds were used in the form of potassium salt, except in the first case which used calcium salt. The experiments were carried out as described in Fernandez-Tornero C et al. J Biol Chem, 2003."}, "[3]": {"test_system": "human prostate cancer PC-3 cells", "assay": "Human tumor cell proliferation, XTT viability method, PC-3", "format": "cell-based", "settings": "1-200 μM, 96 h", "experimental": "(§2) The cell lines used were the human prostate cancer PC-3 cells and human lung cancer A549 cells. 2000 cells were seeded per well in 96-well plates and they were allowed to adhere overnight. Then the cells were treated or not (controls) with potassium 2,5-diacetoxybenzene sulfonate (DABS) (1-200 μM) and they were allowed to proliferate for 96 h. After this time, the PC-3 and A549 cell proliferation was evaluated by determining the final number of cells by means of the viability method of yellow tetrazolium salt (XTT). The data were expressed as a percentage of the control (without treatment)."}, "[4]": {"test_system": "human prostate cancer PC-3 cells", "assay": "Subcutaneous PC-3 tumor progression in athymic mice", "format": "in vivo, athymic mice (Nu/Nu)", "settings": "100 mg/kg daily i.p., 15 days", "experimental": "5×10^6 human prostate cancer PC-3 cells were subcutaneously injected in male athymic mice (Nu/Nu) of 6-8 weeks of age and weighing 20-26 g. Ten days after the implantation of the tumor cells, the mice were randomly split into two groups: one of them received a daily injection of potassium 2,5-diacetoxybenzene sulfonate (DABS) by intraperitoneal route at a dose of 100 mg/kg dissolved in saline (0.9% NaCl) whereas the other group received a daily injection of carrier (saline). The treatments were administered for 15 days. The volumes of the tumors induced by the implantation of PC-3 cells were measured through the skin on alternating days using a Vernier caliper. The volume was calculated using the formula V=(D×2d)/2, where D is the larger diameter in mm, d is the smaller diameter in mm and V is the volume in mm3. At the end of treatment, the mice were sacrificed and the tumors were weighed."}, "[5]": {"target": "T1, Fibroblast Growth Factor-1 (FGF-1)", "assay": "Crystal diffraction of FGF-1:compound complexes", "format": "binding", "settings": "acetoxyl groups conserved when bound", "experimental": "Based on the crystal diffraction of the FGF-1:2-acetoxy-5-hydroxybenzene sulfonic acid, FGF-1:5-acetoxy-2-hydroxybenzene sulfonic acid and FGF-1:2,5-diacetoxybenzene sulfonic acid complexes, the structures of the complexes were calculated and represented. FIGS. 13, 14 and 15, which show the surface of the dyed protein according to its electrostatic potential (light grey, negative charge; dark grey, positive charge; white, regions with no charge), show the manner in which 2-acetoxy-5-hydroxybenzene sulfonic acid, 5-acetoxy-2-hydroxybenzene sulfonic acid and 2,5-diacetoxybenzene sulfonic acid interact, respectively, with FGF-1."}, "[6]": {"test_system": "human lung cancer A549 cells", "assay": "Human tumor cell proliferation, XTT viability method, A549", "format": "cell-based", "settings": "1-200 μM, 96 h", "experimental": "as §2"}, "bFGF-induced fibrosis": {"test_system": "bFGF-induced fibrosis", "assay": "bFGF-induced fibrosis, subcutaneous gelatin sponge implant", "format": "in vivo, Sprague-Dawley rats", "settings": "sponge with bFGF plus compound 100 μM, 7 days", "experimental": "Sterile gelatin sponges (1 mm^3; Curaspon Dental, Clinimed Holding, Zwanenburg, The Netherlands) were subcutaneously implanted in the dorsal region of the neck in Sprague-Dawley rats after the induction of intraperitoneal anesthesia. The animals were split into two groups: group A, the sponges were moistened with 200 μl of saline solution which contained 25 μg/ml of heparin and 10 μg/ml of basic FGF (bFGF); group B, the sponges were moistened in the same solution as in group A, but which solution further contained 2,5-dihydroxybenzoate (100 μM). After 7 days, the sponges and the surrounding subcutaneous fat were removed and histologically analyzed."}},
  "data": [
    {"smiles": "O=C(O)C=Cc1cc(O)ccc1O", "note": "[2,5-DHC, 3-(2,5-dihydroxyphenyl)-2-propenoic acid]", "values": [
      {"measurement": "C6 cell proliferation", "setting": "rat glioma C6 cells; 50 μM", "value": "reduced the C6 cell proliferation to less than half"},
      {"measurement": "C6 cell proliferation", "setting": "rat glioma C6 cells; 100 μM", "value": "proliferation was reduced to one tenth"}
    ]},
    {"smiles": "O=S(=O)([O-])c1cc(O)ccc1O.[K+]", "note": "[DHBS, potassium 2,5-dihydroxybenzene sulfonate, reference compound]", "values": [
      {"measurement": "average size (volume) of the subcutaneous gliomas", "setting": "[1]; i.p. 100 mg/kg/day, 10 days", "value": "less than that of the rats treated with carrier"},
      {"measurement": "inhibition of mitogenesis induced by FGF-1", "setting": "[2]", "value": "inhibition of the mitogenesis induced by fibroblast growth factor 1"}
    ]},
    {"smiles": "CC(=O)Oc1ccc(OC(C)=O)c(S(=O)(=O)[O-])c1.[K+]", "note": "[DABS, potassium 2,5-diacetoxybenzene sulfonate]", "values": [
      {"measurement": "PC-3 cell proliferation (percentage of control)", "setting": "[3]", "value": "caused a significant inhibition"},
      {"measurement": "tumor growth (tumor volume)", "setting": "[4]", "value": "significantly reduced the human prostate cell tumor growth"},
      {"measurement": "weight of the extracted tumor when treatment ended", "setting": "[4]", "value": "significant reduction of the weight of the extracted tumor"},
      {"measurement": "structural interaction with FGF-1 (binding site in co-crystal)", "setting": "[5]", "value": "occupy a site that is very close to the one that has been described occupied by 2,5-dihydroxybenzene sulfonic acid"},
      {"measurement": "A549 cell proliferation (percentage of control)", "setting": "[6]", "value": "caused a significant inhibition"},
      {"measurement": "tumor cell apoptosis in subcutaneous glioma sections (hematoxylin and eosin)", "setting": "[1]; 100 mg/kg/day i.p., 10 days", "value": "a large number of tumor cells in apoptosis can be observed"},
      {"measurement": "probability of being tumor-free (χ2 test)", "setting": "[1]; DABS group vs DHBS group, 100 mg/kg/day", "value": "greater probability of being tumor-free"},
      {"measurement": "average size (volume) of the subcutaneous gliomas", "setting": "[1]; i.p. 100 mg/kg/day, 10 days", "value": "this average volume was even less"},
      {"measurement": "rats tumor-free when treatment ended", "setting": "[1]; i.p. 100 mg/kg/day, 10 days, all rats had established tumors prior to treatment", "value": 4, "unit": "rats"}
    ]},
    {"smiles": "CC(=O)Oc1ccc(O)cc1S(=O)(=O)[O-].[K+]", "note": "[2A-5HBS, potassium 2-acetoxy-5-hydroxybenzene sulfonate]", "values": [
      {"measurement": "structural interaction with FGF-1 (binding site in co-crystal)", "setting": "[5]", "value": "occupy a site that is very close to the one that has been described occupied by 2,5-dihydroxybenzene sulfonic acid"}
    ]},
    {"smiles": "CC(=O)Oc1ccc(O)c(S(=O)(=O)[O-])c1.[K+]", "note": "[5A-2HBS, potassium 5-acetoxy-2-hydroxybenzene sulfonate]", "values": [
      {"measurement": "structural interaction with FGF-1 (binding site in co-crystal)", "setting": "[5]", "value": "occupy a site that is very close to the one that has been described occupied by 2,5-dihydroxybenzene sulfonic acid"}
    ]},
    {"smiles": "O=C([O-])c1cc(O)ccc1O.[K+]", "note": "[2,5-dihydroxybenzoate, potassium 2,5-dihydroxybenzoate]", "values": [
      {"measurement": "bFGF-induced fibrosis (fibroblasts in septa of connective tissue of adipose tissue)", "setting": "bFGF-induced fibrosis", "value": "reduces bFGF-induced fibrosis"},
      {"measurement": "rat glioma C6 cell proliferation (absorbance at 595 nm)", "setting": "rat glioma C6 cells; 100, 200, 500 or 1000 μM", "value": "inhibited rat glioma C6 cell proliferation in a concentration-dependent manner, an effect which was statistically significant at the concentrations of 500 and 1000 μM"}
    ]}
  ]
}
